{"source": "patent US20160298082A1", "about": "“METHOD FOR OBTAINING IMMUNO-STIMULATORY DENDRITIC CELLS” (TRANSIMMUNE AG, priority 2013, published 2016)", "key": {"GILZ [1]": {"tested_on": "GILZ", "test": "GILZ mRNA expression in CD11c+ MoDC (quantitative real-time PCR)", "type": "cell-based, human", "conditions": "relative to untreated MoDC cultured alone; 24 hr (FIG. 13B); dex 100 nM; PUVA 100 ng/mL, 1 J/cm^2", "description": "Monocytes were cultured at a density of 5×10^6 cells/mL in 6- and 12-well polystyrene tissue culture plates at 37° C. and 5% CO2 in RPMI-1640 (Gibco) supplemented with heat-inactivated 15% AB serum (Gemini) and 1% penicillin/streptomycin (now referred to as complete media). 800 IU/mL recombinant human GM-CSF (R&D Systems) and 1000 IU/mL recombinant human IL-4 (R&D Systems) were added to cultures for 36 hr to induce monocyte to DC differentiation as described.\nNon-adherent cells (purity: 66.0±4.5% CD3^+) removed during plastic adherence will now be generally referred to as lymphocytes. Lymphocytes were treated with 8-MOP (100 ng/mL) and UVA (1 J/cm^2), washed with PBS, and co-cultured in complete media at 37° C. and 5% CO2 with either PUVA-treated or untreated-MoDC in a ratio of 5 or 10 lymphocytes to 1 MoDC. […] 24 hr after LPS stimulation, cells were harvested for RNA isolation and immunophenotyping, and supernatants were collected for cytokine quantification.\nRNA was isolated from CD11c^+ MoDC using QIAShredder columns (QIAGEN) and the RNeasy Mini Kit (QIAGEN) with on-column Dnase I treatment (QIAGEN). RNA yield and purity were assessed using a NanoDrop ND-1000 spectrophotometer. cDNA was obtained using the High Capacity cDNA Reverse Transcription Kit (Applied Biosystems) in a 96-well thermocycler (MJ Research PTC-200). […]"}, "CD11c+ cells": {"tested_on": "CD11c+ cells", "test": "Apoptosis / cell death of CD11c+ MoDC (Annexin-V/7-AAD)", "type": "cell-based, human", "description": "Immunofluorescence was analyzed using a FACSCalibur L (BD Biosciences) within 2 hr of fixation with 2% paraformaldehyde."}, "lymphocytes [2]": {"tested_on": "lymphocytes", "test": "Apoptosis of lymphocytes (Annexin-V/7-AAD)", "type": "cell-based, human"}, "MoDC [3]": {"tested_on": "MoDC", "test": "Cytokine quantification in MoDC supernatants after LPS stimulation (magnetic bead multiplex)", "type": "cell-based, human", "description": "Lymphocytes were treated with 8-MOP (100 ng/mL) and UVA (1 J/cm^2), washed with PBS, and co-cultured in complete media at 37° C. and 5% CO2 with either PUVA-treated or untreated-MoDC in a ratio of 5 or 10 lymphocytes to 1 MoDC. MoDC treated for 24 hr with 100 nM dexamethasone (Sigma) served as the positive control group. After 24 hr, cells were harvested and MoDC were re-purified. […] CD11c^+ MoDC were re-plated at 0.5-1.0×10^6 cells/mL in complete media and stimulated with 100 ng/mL LPS (Sigma). 24 hr after LPS stimulation, cells were harvested for RNA isolation and immunophenotyping, and supernatants were collected for cytokine quantification.\n(§1) Culture supernatants were analyzed in a multiplex format utilizing magnetic beads to IL-6, IL-8, IL-10, IL-12p70, IFN-γ, TNF-α, RANTES, MCP-1, and MIP-1β (BioRad Laboratories). For siRNA experiments, supernatants were analyzed with enzyme-linked immunosorbent assay (ELISA) kits for IL-10 (R&D Systems) and IL-12p70 (Enzo Life Science). All samples and standards were run in duplicate and analyzed using the LUMINEX 200 (LUMINEX), or the BioTek EL800 (BioTek)."}, "MoDC [4]": {"tested_on": "MoDC", "test": "IL-10 and IL-12p70 ELISA in siRNA experiments", "type": "cell-based, human", "conditions": "siRNA experiment, not transfected", "description": "Silencer select pre-designed and validated GILZ siRNA (Invitrogen), with off-target prediction algorithms, was used to knockdown GILZ expression. Mo-DC were transfected using Lipofectamine RNAiMAX Reagent (Invitrogen). RNAi duplex and lipofectamine reagent were incubated together for 20 min, then added to MoDC cultures and incubated for 2 hr at 37° C. and 5% CO2. Transfected MoDC were treated in an identical fashion as described for the MoDC/lymphocyte co-cultures. MoDC were also transfected with scramble siRNA.\nas §1"}, "lymphocytes [5]": {"tested_on": "lymphocytes", "test": "Apoptosis of ECP-processed lymphocytes after overnight incubation", "type": "cell-based, human", "conditions": "UVA-activated 8-MOP; APO2-PE, Trypan blue and/or annexin/propidium iodide"}, "immature MoDC": {"tested_on": "immature MoDC", "conditions": "24 hr"}, "GILZ [6]": {"tested_on": "GILZ", "test": "GILZ mRNA expression in CD11c+ MoDC (quantitative real-time PCR)", "type": "cell-based, human"}, "[7]": {"conditions": "100 ng/mL and 1 J/cm^2, 24 hr after treatment"}, "[8]": {"conditions": "24 hr after LPS stimulation, vs untreated MoDC"}, "[9]": {"conditions": "8-MOP 0 to 200 ng/mL, UVA 1 or 2 J/cm2"}, "[10]": {"conditions": "product of 8-MOP and UVA exceeded 100"}}}
{"smiles": "COc1c2occc2cc2ccc(=O)oc12", "note": "[8-MOP, 8-methoxypsoralen]", "values": [{"measurement": "GILZ up-regulation, MoDC cultured alone", "setting": "GILZ [1]", "value": 2.78, "unit": "fold"}, {"measurement": "Late apoptotic CD11c+ cells", "setting": "CD11c+ cells; 1 J/cm^2, all doses of 8-MOP tested, 24 hr", "value": "less than 13%"}, {"measurement": "Late apoptotic CD11c+ cells", "setting": "CD11c+ cells; 2 J/cm^2, all doses of 8-MOP tested, 24 hr", "value": "less than 16%"}, {"measurement": "Early apoptotic CD11c+ cells compared to untreated MoDC", "setting": "CD11c+ cells; 2 J/cm^2 and 200 ng/mL, 24 hr", "value": "increase"}, {"measurement": "Cell death", "setting": "CD11c+ cells; 4 J/cm^2 UVA (data not shown)", "value": "high levels of non-specific cell death"}, {"measurement": "Early apoptotic lymphocytes", "setting": "lymphocytes [2]; [7]", "value": 44.3, "unit": "%"}, {"measurement": "Late apoptotic lymphocytes", "setting": "lymphocytes [2]; [7]", "value": 33.7, "unit": "%"}, {"measurement": "Time at which lymphocytes display Annexin-V after treatment", "setting": "lymphocytes [2]; 1 J/cm^2 and 100 ng/mL (data not shown)", "value": "≤ 2", "unit": "h"}, {"measurement": "Lymphocytes Annexin-V+", "setting": "lymphocytes [2]; 24 hr after treatment", "value": "64.3±3.2", "unit": "%"}, {"measurement": "IL-10 production", "setting": "MoDC [3]; [8]", "value": "increased production of IL-10"}, {"measurement": "Production of pro-inflammatory cytokines and chemokines", "setting": "MoDC [3]; [8]", "value": "decreased production of all pro-inflammatory cytokines and chemokines tested, except TNF-α and IFN-γ"}, {"measurement": "Ratio of IL-10 to IL-12p70, MoDC cultured alone", "setting": "MoDC [3]; after LPS, untreated MoDC 6.7", "value": 38.7}, {"measurement": "Ratio of IL-10 to IL-12p70, PUVA-DC exposed to ApoL", "setting": "MoDC [3]; after LPS, untreated MoDC 6.7", "value": 114.9}, {"measurement": "IL-10 to IL-12p70 ratio, non-transfected MoDC cultured alone", "setting": "MoDC [4]", "value": 8.4}, {"measurement": "IL-10 to IL-12p70 ratio, non-transfected PUVA-DC exposed to ApoL", "setting": "MoDC [4]", "value": 28.4}, {"measurement": "ECP-processed lymphocytes apoptotic after overnight incubation", "setting": "lymphocytes [5]", "value": 99, "unit": "%"}, {"measurement": "Membrane CD83, CD80 and CD86 expression (qualitative)", "setting": "immature MoDC; [9]", "value": "down-regulates"}, {"measurement": "Membrane HLA-DR expression (qualitative)", "setting": "immature MoDC; [9]", "value": "up-regulates"}, {"measurement": "Increase of HLA-DR expression", "setting": "immature MoDC; [10]", "value": 38, "unit": "%"}, {"measurement": "Reduction of CD80 expression", "setting": "immature MoDC; [10]", "value": 30, "unit": "%"}, {"measurement": "Reduction of CD83 expression", "setting": "immature MoDC; [10]", "value": 31, "unit": "%"}, {"measurement": "Reduction of CD86 expression", "setting": "immature MoDC; [10]", "value": 54, "unit": "%"}, {"measurement": "GILZ expression", "setting": "GILZ [6]; 0.5 J/cm^2 UVA", "value": "no effect on GILZ expression until the 8-MOP concentration reached 200 ng/mL"}, {"measurement": "GILZ up-regulation", "setting": "GILZ [6]; 1 J/cm^2 UVA, 100 ng/mL 8-MOP, 24 hr", "value": 2.9, "unit": "fold"}, {"measurement": "GILZ up-regulation", "setting": "GILZ [6]; 1 J/cm^2 UVA, 200 ng/mL 8-MOP, 24 hr", "value": 4.4, "unit": "fold"}, {"measurement": "8-MOP concentration at which dose-dependent GILZ up-regulation starts", "setting": "GILZ [6]; 2 J/cm^2 UVA", "value": 50, "unit": "ng/mL"}, {"measurement": "GILZ expression", "setting": "GILZ [6]; 8-MOP alone, without UVA, 24 hr", "value": "did not effect GILZ expression"}, {"measurement": "Time GILZ remains significantly elevated", "setting": "GILZ [6]; 8-MOP and UVA light", "value": 72, "unit": "h"}, {"measurement": "Time of peak GILZ induction after treatment", "setting": "GILZ [6]; 8-MOP and UVA light", "value": 24, "unit": "h"}, {"measurement": "GILZ expression in immature MoDC after 8-MOP plus UVA light (qualitative)", "setting": "GILZ [6]; 24 hr after PUVA", "value": "up-regulates GILZ"}, {"measurement": "GILZ expression increase", "setting": "GILZ [6]; combination of 8-MOP and UVA light, relative to untreated MoDC (FIG. 10E)", "value": 5.5, "unit": "fold"}, {"measurement": "GILZ up-regulation", "setting": "GILZ [6]; product of 8-MOP and UVA = 100", "value": 3, "unit": "fold"}, {"measurement": "GILZ up-regulation", "setting": "GILZ [6]; product of 8-MOP and UVA = 200", "value": 4.8, "unit": "fold"}, {"measurement": "GILZ up-regulation", "setting": "GILZ [6]; product of 8-MOP and UVA = 400", "value": 8.6, "unit": "fold"}]}
